From ChEMBL document CHEMBL1143819, “In vitro activities of miltefosine and two novel antifungal biscationic salts against a panel of 77 dermatophytes” (2007)
In brackets after ≈: the same amount, converted by molar mass.

Tests used:
Assay type in all cases: functional
Conditions in all cases: 168 h
[1] = test system: Nannizzia gypsea; test: Antifungal activity against Microsporum gypseum after 7 days by broth microdilution test
[2] = test system: Trichophyton rubrum; test: Antifungal activity against Trichophyton rubrum after 7 days by broth microdilution test
[3] = test system: Trichophyton violaceum; test: Antifungal activity against Trichophyton violaceum after 7 days by broth microdilution test
[4] = test system: Microsporum; test: Antifungal activity against Microsporum sp. after 7 days by broth microdilution test
[5] = test system: Epidermophyton floccosum; test: Antifungal activity against Epidermophyton floccosum after 7 days by broth microdilution test
[6] = test system: Paraphyton cookei; test: Antifungal activity against Microsporum cookei after 7 days by broth microdilution test
[7] = test system: Trichophyton mentagrophytes; test: Antifungal activity against Trichophyton mentagrophytes after 7 days by broth microdilution test
[8] = test system: Trichophyton tonsurans; test: Antifungal activity against Trichophyton tonsurans after 7 days by broth microdilution test
[9] = test system: Microsporum canis; test: Antifungal activity against Microsporum canis after 7 days by broth microdilution test
[10] = test system: Trichophyton soudanense; test: Antifungal activity against Trichophyton soudanense after 7 days by broth microdilution test
[11] = test system: Trichophyton; test: Antifungal activity against Trichophyton sp. after 7 days by broth microdilution test
[12] = Antifungal activity against Cryptococcus after 7 days by broth microdilution test
[13] = test system: Candida; test: Antifungal activity against Candida after 7 days by broth microdilution test

Row | Structure (SMILES) | MIC [1] [µg/mL] | MIC [2] [µg/mL] | MIC50 [2] [µg/mL] | MIC90 [2] [µg/mL] | MIC [3] [µg/mL] | MIC [4] [µg/mL] | MIC50 [4] [µg/mL] | MIC90 [4] [µg/mL] | MIC [5] [µg/mL] | MIC [6] [µg/mL] | MIC [7] [µg/mL] | MIC50 [7] [µg/mL] | MIC90 [7] [µg/mL] | MIC [8] [µg/mL] | MIC50 [8] [µg/mL] | MIC [9] [µg/mL] | MIC [10] [µg/mL] | MIC [11] [µg/mL] | MIC50 [11] [µg/mL] | MIC90 [11] [µg/mL] | other results
1 | CN(Cc1ccc(C(C)(C)C)cc1)Cc1cccc2ccccc12 [BUTENAFINE] | 0.084 (≈ 0.265 µM) | 0.05 (≈ 0.157 µM) | 0.063 (≈ 0.198 µM) | 0.125 (≈ 0.394 µM) | 0.063 (≈ 0.198 µM) | 0.106 (≈ 0.334 µM) | 0.125 (≈ 0.394 µM) | 0.125 (≈ 0.394 µM) | 0.081 (≈ 0.255 µM) | 0.153 (≈ 0.482 µM) | 0.063 (≈ 0.198 µM) | 0.063 (≈ 0.198 µM) | 0.125 (≈ 0.394 µM) | 0.04 (≈ 0.126 µM) | 0.031 (≈ 0.0976 µM) | 0.101 (≈ 0.318 µM) | 0.059 (≈ 0.186 µM) | 0.074 (≈ 0.233 µM) | 0.063 (≈ 0.198 µM) | 0.125 (≈ 0.394 µM) | MIC90 [8]: 0.063 µg/mL (≈ 0.198 µM)
2 | CCCCCCCCCCCCCCCCOP(=O)([O-])OCC[N+](C)(C)C [MILTEFOSINE] | 0.842 (≈ 2.07 µM) | 0.547 (≈ 1.34 µM) | 0.5 (≈ 1.23 µM) | 1 (≈ 2.45 µM) | 0.328 (≈ 0.805 µM) | 0.75 (≈ 1.84 µM) | 1 (≈ 2.45 µM) | 1 (≈ 2.45 µM) | 0.548 (≈ 1.34 µM) | 0.866 (≈ 2.12 µM) | 1.13 (≈ 2.78 µM) | 1 (≈ 2.45 µM) | 2 (≈ 4.91 µM) | 0.398 (≈ 0.977 µM) | 0.25 (≈ 0.613 µM) | 0.555 (≈ 1.36 µM) | 0.52 (≈ 1.28 µM) | 0.652 (≈ 1.6 µM) | 0.5 (≈ 1.23 µM) | 1 (≈ 2.45 µM) | MIC90 [8]: 1 µg/mL (≈ 2.45 µM)
3 | CN(C/C=C/C#CC(C)(C)C)Cc1cccc2ccccc12 [TERBINAFINE] | 0.065 (≈ 0.223 µM) | 0.035 (≈ 0.12 µM) | 0.031 (≈ 0.106 µM) | 0.063 (≈ 0.216 µM) | 0.063 (≈ 0.216 µM) | 0.075 (≈ 0.257 µM) | 0.063 (≈ 0.216 µM) | 0.125 (≈ 0.429 µM) | 0.059 (≈ 0.202 µM) | 0.077 (≈ 0.264 µM) | 0.03 (≈ 0.103 µM) | 0.031 (≈ 0.106 µM) | 0.063 (≈ 0.216 µM) | 0.03 (≈ 0.103 µM) |  | 0.083 (≈ 0.285 µM) | 0.039 (≈ 0.134 µM) | 0.044 (≈ 0.151 µM) | 0.031 (≈ 0.106 µM) | 0.063 (≈ 0.216 µM) | 
4 | CCCCCc1cc[n+](CCCCCCCCCCCC[n+]2ccc(CCCCC)cc2)cc1.[Cl-].[Cl-] | 2.41 | 10.4 | 8 | 16 | 8.96 | 2.24 | 2 | 4 | 7.63 | 1.06 | 9.01 | 8 | 16 | 2.8 | 2 | 2.95 | 14.5 | 6.98 | 8 | 16 | MIC [12]: 0.6 µg/mL; MIC [13]: 0.6 µg/mL; MIC90 [8]: 8 µg/mL
5 | CCC(C)n1ncn(-c2ccc(N3CCN(c4ccc(OCC5COC(Cn6cncn6)(c6ccc(Cl)cc6Cl)O5)cc4)CC3)cc2)c1=O (stereo not given) [ITRACONAZOLE] | 3.68 (≈ 5.22 µM) | 1.96 (≈ 2.77 µM) | 2 (≈ 2.83 µM) | 4 (≈ 5.67 µM) | 3.3 (≈ 4.68 µM) | 2.63 (≈ 3.73 µM) | 4 (≈ 5.67 µM) | 8 (≈ 11.3 µM) | 0.226 (≈ 0.32 µM) | 6 (≈ 8.5 µM) | 1.68 (≈ 2.38 µM) | 2 (≈ 2.83 µM) | 4 (≈ 5.67 µM) | 1.65 (≈ 2.33 µM) | 2 (≈ 2.83 µM) | 1.23 (≈ 1.74 µM) | 3.42 (≈ 4.85 µM) | 1.99 (≈ 2.82 µM) | 2 (≈ 2.83 µM) | 4 (≈ 5.67 µM) | MIC90 [8]: 4 µg/mL (≈ 5.67 µM)
